Laboratory results published in patent publication US10376481B2, “Compounds and methods for inhibiting NHE-mediated antiport in the treatment of disorders associated with fluid retention or salt overload and gastrointestinal tract disorders” (ARDELYX, INC, priority 2012, dated 2019).

Tests used:
human NHE3 [1] = target: T1, human NHE3 (Homo sapiens, UniProt P48764); assay: Cell-based assay of NHE-3 activity (pre-incubation inhibition), human; conditions: for IC50: PS120 fibroblasts stably expressing human NHE3, 10 min pre-incubation with 0-30 μM test compound, read-out: pIC50 (human Preincubation assay) (converted); for % inhibition (human Preincubation assay): PS120 fibroblasts stably expressing human NHE3, pre-incubation with test compound
T1 sequence (P48764 26-834): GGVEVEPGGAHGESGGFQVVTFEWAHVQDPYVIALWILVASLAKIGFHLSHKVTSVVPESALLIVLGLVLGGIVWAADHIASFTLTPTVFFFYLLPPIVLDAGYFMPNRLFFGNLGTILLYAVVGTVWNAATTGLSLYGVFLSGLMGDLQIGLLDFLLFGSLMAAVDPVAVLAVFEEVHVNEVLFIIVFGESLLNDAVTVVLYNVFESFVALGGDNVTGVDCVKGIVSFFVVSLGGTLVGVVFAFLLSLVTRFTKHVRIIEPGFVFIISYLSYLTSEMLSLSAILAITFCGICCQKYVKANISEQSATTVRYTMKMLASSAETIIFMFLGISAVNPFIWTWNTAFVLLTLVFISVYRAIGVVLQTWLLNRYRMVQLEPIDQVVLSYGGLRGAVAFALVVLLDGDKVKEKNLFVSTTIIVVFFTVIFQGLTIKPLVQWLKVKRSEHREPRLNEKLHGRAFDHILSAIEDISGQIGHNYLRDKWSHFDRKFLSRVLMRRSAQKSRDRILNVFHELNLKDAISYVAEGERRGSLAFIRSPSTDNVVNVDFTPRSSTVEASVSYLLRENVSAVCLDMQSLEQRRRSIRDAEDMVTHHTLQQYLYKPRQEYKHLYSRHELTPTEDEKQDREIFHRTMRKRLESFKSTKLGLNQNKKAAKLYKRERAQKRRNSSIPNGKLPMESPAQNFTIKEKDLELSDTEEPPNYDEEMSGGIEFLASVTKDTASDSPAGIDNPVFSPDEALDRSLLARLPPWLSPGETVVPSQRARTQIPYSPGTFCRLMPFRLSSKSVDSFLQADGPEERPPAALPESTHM
Description: Rat and human NHE-3-mediated Na^+-dependent H^+ antiport was measured using a modification of the pH sensitive dye method originally reported by Paradiso (Proc. Natl. Acad. Sci. USA. (1984) 81(23): 7436-7440, which is hereby incorporated by reference in its entirety). PS120 fibroblasts stably expressing human NHE3 were obtained from Mark Donowitz (Baltimore, Md.). Opossum kidney (OK) cells were obtained from the ATCC and propagated per their instructions. The rat NHE-3 gene (GenBank M85300) was introduced into OK cells via electroporation, and cells were seeded into 96 well plates and grown overnight. Medium was aspirated from the wells then incubated for 30 min at 37° C. with NH4Cl-HEPES buffer (20 mM NH4Cl, 80 mM NaCl, 50 mM HEPES, 5 mM KCl, 2 mM CaCl2, 1 mM MgCl2, pH 7.4) containing 5 μM BCECF-AM. Cells were washed once with Ammonium free, Nat-free HEPES (100 mM choline, 50 mM HEPES, 10 mM glucose, 5 mM KCl, 2 mM CaCl2, 1 mM MgCl2, pH 7.4) and incubated in the same buffer for 10 minutes at room temperature to lower intracellular pH with 0-30 μM test compound. […] Changes in intracellular pH were monitored using a FLIPR Tetra® (Molecular Devices, Sunnyvale, Calif.) by excitation at λex 439 to 505 nm, and measuring BCECF fluorescence at λem 538 nm. The initial rate of the fluorescence ratio change was used as a measure of NHE-mediated Na^+/H^+ activity, and reported as the change in fluorescence ratio per minute. Initial rates were plotted as the average 2 or more replicates, and pIC50 values were estimated using GraphPad Prism.

human NHE3 [2] = target: T1, human NHE3; assay: Cell-based assay of NHE-3 activity (human NHE3 inhibition assay); set-up: expressed in transfected cells; host or cells: Opossum kidney (OK) cells (ATCC), electroporated; conditions: OK cells with human NHE-3 gene, BCECF pH recovery, 0-30 μM test compound; read-out: Human NHE3 pIC50 (converted)
Description: Rat or human NHE-3-mediated Na^+-dependent H^+ antiport was measured using a modification of the pH sensitive dye method originally reported by Paradiso (Proc. Natl. Acad. Sci. USA. (1984) 81(23): 7436-7440). Opossum kidney (OK) cells were obtained from the ATCC and propagated per their instructions. The rat NHE-3 gene (GenBank M85300) or the human NHE-3 gene (GenBank NM_004174.1) was introduced into OK cells via electroporation, and cells were seeded into 96 well plates and grown overnight. Medium was aspirated from the wells, cells were washed twice with NaCl-HEPES buffer (100 mM NaCl, 50 mM HEPES, 10 mM glucose, 5 mM KCl, 2 mM CaCl2, 1 mM MgCl2, pH 7.4), then incubated for 30 min at room temperature with NH4Cl-HEPES buffer (20 mM NH4Cl, 80 mM NaCl, 50 mM HEPES, 5 mM KCl, 2 mM CaCl2, 1 mM MgCl2, pH 7.4) containing 5 μM bis(acetoxymethyl) 3,3′-(3′,6′-bis(acetoxymethoxy)-5-((acetoxymethoxy)carbonyl)-3-oxo-3H-spiro[isobenzofuran-1,9′-xanthene]-2′,7′-diyl)dipropanoate (BCECF-AM). Cells were washed twice with Ammonium free, Na^+-free HEPES (100 mM choline, 50 mM HEPES, 10 mM glucose, 5 mM KCl, 2 mM CaCl2, 1 mM MgCl2, pH 7.4) and incubated in the same buffer for 10 minutes at room temperature to lower intracellular pH. […] Initial rates were plotted as the average 2 or more replicates, and pIC50 values were estimated using GraphPad Prism.

IC50 (human NHE3 [1])	% inhibition (human Preincubation assay) (human NHE3 [1])	IC50 (human NHE3 [2])	Structure (SMILES)
< 0.1 µM	B (40-70%)	> 10 µM	O=C(NCCCCNC(=O)NCCOCCOCCNS(=O)(=O)c1ccc(O[C@H]2c3cc(Cl)cc(Cl)c3C[C@@H]2N2CCCCC2)cc1)NCCOCCOCCNS(=O)(=O)c1ccc(O[C@H]2c3cc(Cl)cc(Cl)c3C[C@@H]2N2CCCCC2)cc1 [Example 15]
< 0.1 µM	C (>70%)	< 0.1 µM	CN(C)[C@H]1Cc2c(Cl)cc(Cl)cc2[C@@H]1Oc1ccc(S(=O)(=O)NCCOCCOCCNC(=O)[C@H](O)[C@@H](O)C(=O)NCCOCCOCCNS(=O)(=O)c2ccc(O[C@H]3c4cc(Cl)cc(Cl)c4C[C@@H]3N(C)C)cc2)cc1 [Example 5, (2R,3R)—N1,N4-bis(2-(2-(2-(4-((1S,2S)-4,6-dichloro-2-(dimethylamino)-2,3-dihydro-1H-inden-1-yloxy)phenylsulfonamido)ethoxy)ethoxy)ethyl)-2,3-dihydroxysuccinamide]
0.1 to 1 µM	C (>70%)	< 0.1 µM	CN(C)[C@H]1Cc2c(Cl)cc(Cl)cc2[C@@H]1Oc1ccc(S(=O)(=O)NCCOCCOCCNC(=O)C(C)(C)C(=O)NCCOCCOCCNS(=O)(=O)c2ccc(O[C@H]3c4cc(Cl)cc(Cl)c4C[C@@H]3N(C)C)cc2)cc1 [Example 36]
< 0.1 µM	C (>70%)	< 0.1 µM	CN(C)[C@H]1Cc2ccccc2[C@@H]1Oc1ccc(S(=O)(=O)NCCOCCOCCNC(=O)NCCCCNC(=O)NCCOCCOCCNS(=O)(=O)c2ccc(O[C@H]3c4ccccc4C[C@@H]3N(C)C)cc2)cc1 [Example 20]
< 0.1 µM	C (>70%)	< 0.1 µM	O=C(NCCCCNC(=O)NCCOCCOCCNS(=O)(=O)c1ccc(O[C@H]2c3cc(F)ccc3C[C@@H]2N2CCCCC2)cc1)NCCOCCOCCNS(=O)(=O)c1ccc(O[C@H]2c3cc(F)ccc3C[C@@H]2N2CCCCC2)cc1 [Example 23]
< 0.1 µM	C (>70%)	< 0.1 µM	CN(C)[C@H]1Cc2ccc(Cl)cc2[C@@H]1Oc1ccc(S(=O)(=O)NCCOCCOCCNC(=O)NCCCCNC(=O)NCCOCCOCCNS(=O)(=O)c2ccc(O[C@H]3c4cc(Cl)ccc4C[C@@H]3N(C)C)cc2)cc1 [Example 21]
< 0.1 µM	C (>70%)	< 0.1 µM	CN(C)[C@H]1Cc2c(F)cc(Cl)cc2[C@@H]1Oc1ccc(S(=O)(=O)NCCOCCOCCNC(=O)NCCCCNC(=O)NCCOCCOCCNS(=O)(=O)c2ccc(O[C@H]3c4cc(Cl)cc(F)c4C[C@@H]3N(C)C)cc2)cc1 [Example 25]
< 0.1 µM	C (>70%)	< 0.1 µM	O=C(NCCCCNC(=O)NCCOCCOCCNS(=O)(=O)c1ccc(O[C@H]2c3cc(Cl)cc(F)c3C[C@@H]2N2CCCCC2)cc1)NCCOCCOCCNS(=O)(=O)c1ccc(O[C@H]2c3cc(Cl)cc(F)c3C[C@@H]2N2CCCCC2)cc1 [Example 24]
> 1 µM	C (>70%)	0.1 to 10 µM	O=C(NCCCCNC(=O)NCCOCCOCCNC(=O)Nc1cccc(O[C@H]2c3ccccc3C[C@@H]2N2CCCCC2)c1)NCCOCCOCCNC(=O)Nc1cccc(O[C@H]2c3ccccc3C[C@@H]2N2CCCCC2)c1 [Example 13, 1-{2-[2-(2-{[(3-{[(1S,2S)-2-(piperidin-1-yl)-2,3-dihydro-1H-inden-1-yl]oxy}phenyl)carbamoyl]amino}ethoxy)ethoxy]ethyl}-3-{4-[({2-[2-(2-{[(3-{[(1S,2S)-2-(piperidin-1-yl)-2,3-dihydro-1H-inden-1-yl]oxy}phenyl)carbamoyl]amino}ethoxy)ethoxy]ethyl}carbamoyl)amino]butyl}urea]
< 0.1 µM	C (>70%)	< 0.1 µM	O=C(NCCCCNC(=O)NCCOCCOCCOCCNS(=O)(=O)c1ccc(O[C@H]2c3ccccc3C[C@@H]2N2CCCCC2)cc1)NCCOCCOCCOCCNS(=O)(=O)c1ccc(O[C@H]2c3ccccc3C[C@@H]2N2CCCCC2)cc1 [Example 16]
< 0.1 µM	C (>70%)	< 0.1 µM	CN(C)[C@H]1Cc2ccc(F)cc2[C@@H]1Oc1ccc(S(=O)(=O)NCCOCCOCCNC(=O)NCCCCNC(=O)NCCOCCOCCNS(=O)(=O)c2ccc(O[C@H]3c4cc(F)ccc4C[C@@H]3N(C)C)cc2)cc1 [Example 22]
< 0.1 µM	C (>70%)	< 0.1 µM	O=C(NCCCCNC(=O)NCCOCCOCCNS(=O)(=O)c1ccc(O[C@H]2c3ccccc3C[C@@H]2N2CCCCC2)cc1)NCCOCCOCCNS(=O)(=O)c1ccc(O[C@H]2c3ccccc3C[C@@H]2N2CCCCC2)cc1 [Example 14]
< 0.1 µM	C (>70%)	< 0.1 µM	O=C(NCCCCNC(=O)NCCOCCOCCNS(=O)(=O)c1ccc(O[C@H]2c3cc(Cl)cc(F)c3C[C@@H]2N2CC[C@@H](O)C2)cc1)NCCOCCOCCNS(=O)(=O)c1ccc(O[C@H]2c3cc(Cl)cc(F)c3C[C@@H]2N2CC[C@@H](O)C2)cc1 [Example 4, (S,S,R)—N,N′-(10,17-dioxo-3,6,21,24-tetraoxa-9,11,16,18-tetraazahexacosane-1,26-diyl)bis(4-((1S,2S)-6-chloro-4-fluoro-2-((R)-3-hydroxypyrrolidin-1-yl)-2,3-dihydro-1H-inden-1-yloxy)benzenesulfonamide)]
